The nature of series [1]: solubility in ethanol.
The nature of series [2]: solubility in water. As to conditions: parts of water needed to dissolve the salt. It counts as physicochemical.
Series [3] relates to Streptococcus beta-haemolyticus. Description: in vitro antibacterial activity (MIC) against hospital strains. The series is classed as cell-based.
Where [4] appears, read: Streptococcus beta-haemolyticus strain A (hospital strain).
Where [5] appears, read: Streptococcus beta-haemolyticus strain D (hospital strain).
Setting [6] is: Streptococcus beta-haemolyticus strain B (hospital strain).
[7] abbreviates: Streptococcus beta-haemolyticus strain C (hospital strain).

Converted amounts (≈) assume the structure as drawn. Read-outs that look alike come from different tables or passages of the source.

For `CCC(=O)O[C@H]1[C@H](O[C@@H]2[C@@H](C)[C@H](O[C@H]3C[C@@](C)(OC)[C@@H](O)[C@H](C)O3)[C@@H](C)C(=O)O[C@H](CC)[C@@](C)(O)[C@H](O)[C@@H](C)C(=O)[C@H](C)C[C@@]2(C)O)O[C@H](C)C[C@@H]1N(C)C` [propionylerythromycin (-)-alpha-propionyl-glycinate], the “soluble in p. ethanol 95% v/v” value in series [1] is reported as 2 p. In addition, in series [2], the “soluble in p. water” value is 60 p.

Take `CCC(=O)O[C@H]1[C@H](O[C@@H]2[C@@H](C)[C@H](O[C@H]3C[C@@](C)(OC)[C@@H](O)[C@H](C)O3)[C@@H](C)C(=O)O[C@H](CC)[C@@](C)(O)[C@H](O)[C@@H](C)C(=O)[C@H](C)C[C@@]2(C)O)O[C@H](C)C[C@@H]1N(C)C` [Propionylerythromycin base, propionic ester (2'-.propanoate) of erythromycin A, reference compound]: the MIC in series [3] (Streptococcus, Streptococcus beta-haemolyticus strain A (hospital strain), read-out: MIC) came out at 2.5 µg/mL (≈ 3.16 µM); in series [3] (Streptococcus, Streptococcus beta-haemolyticus strain B (hospital strain), read-out: MIC) it was 0.6 µg/mL (≈ 0.759 µM); in series [3] (Streptococcus, Streptococcus beta-haemolyticus strain C (hospital strain), read-out: MIC), 0.6 µg/mL (≈ 0.759 µM); in series [3] (Streptococcus, Streptococcus beta-haemolyticus strain D (hospital strain), read-out: MIC) it was 0.6 µg/mL (≈ 0.759 µM).

In the case of `CC[C@H]1OC(=O)[C@H](C)[C@@H](O[C@H]2C[C@@](C)(OC)[C@@H](O)[C@H](C)O2)[C@H](C)[C@@H](O[C@@H]2O[C@H](C)C[C@H](N(C)C)[C@H]2O)[C@](C)(O)C[C@@H](C)C(=O)[C@H](C)[C@@H](O)[C@]1(C)O` [Erythromycin base, erythromycin A, reference compound], the MIC came to 5 µg⁻¹ mL⁻¹ in series [3] (setting [4]); 0.6 µg⁻¹ mL⁻¹ in series [3] (setting [5]); 0.6 µg/mL (≈ 0.818 µM) in series [3] (Streptococcus, Streptococcus beta-haemolyticus strain C (hospital strain)).

On to `CCC(=O)O[C@H]1[C@H](O[C@@H]2[C@@H](C)[C@H](O[C@H]3C[C@@](C)(OC)[C@@H](O)[C@H](C)O3)[C@@H](C)C(=O)O[C@H](CC)[C@@](C)(O)[C@H](O)[C@@H](C)C(=O)[C@H](C)C[C@@]2(C)O)O[C@H](C)C[C@@H]1N(C)C` [Propionylerythromycin (+)-alpha-mercapto-propionyl-glycinate] [Propionylerythromycin (+)-alpha-mercaptopropionyl-glycinate], for which the MIC in series [3] (setting [4]) came to 5 µg⁻¹ mL⁻¹; in series [3] (setting [6]) it was 0.3 µg⁻¹ mL⁻¹; in series [3] (setting [7]) it was 0.3 µg⁻¹ mL⁻¹; in series [3] (setting [5]) it was 0.3 µg⁻¹ mL⁻¹. Besides, in series [1], the “soluble in p. ethanol 95% v/v” value was found to be 2 p. Further, the “soluble in p. water” value in series [2] is on record as 90 p.

For the compound `CC[C@H]1OC(=O)[C@H](C)[C@@H](O[C@H]2C[C@@](C)(OC)[C@@H](O)[C@H](C)O2)[C@H](C)[C@@H](O[C@@H]2O[C@H](C)C[C@H](N(C)C)[C@H]2O)[C@](C)(O)C[C@@H](C)C(=O)[C@H](C)[C@@H](O)[C@]1(C)O` [Erythromycin acetylsalicylate], the MIC stood at 0.6 µg⁻¹ mL⁻¹ in series [3] (setting [6]), 0.3 µg⁻¹ mL⁻¹ in series [3] (setting [7]) and 0.075 µg⁻¹ mL⁻¹ in series [3] (setting [5]). For the same compound, in series [2], the “soluble in p. water” value is listed as 100 p.

Turning to `CCC(=O)O[C@H]1[C@H](O[C@@H]2[C@@H](C)[C@H](O[C@H]3C[C@@](C)(OC)[C@@H](O)[C@H](C)O3)[C@@H](C)C(=O)O[C@H](CC)[C@@](C)(O)[C@H](O)[C@@H](C)C(=O)[C@H](C)C[C@@]2(C)O)O[C@H](C)C[C@@H]1N(C)C` [Propionylerythromycin acetylsalicylate], the MIC in series [3] (setting [4]) was 5 µg⁻¹ mL⁻¹; in series [3] (setting [6]), 0.3 µg⁻¹ mL⁻¹; in series [3] (setting [7]) it was 0.3 µg⁻¹ mL⁻¹; in series [3] (setting [5]) it was 0.3 µg⁻¹ mL⁻¹. Besides, in series [1], the “soluble in p. ethanol 95% v/v” value came out at 4 p. Moreover, the “soluble in p. water” value in series [2] stood at 300 p.

The record behind these values is patent publication EP0096013A1, “Salts of erythromycin showing a combined therapeutic activity, process for their preparation and pharmaceutical formulations containing them” (NUOVO CONSORZIO SANITARIO NAZIONALE, priority 1982, dated 1983).
